Results reported in the NIST ThermoML archive (doi:10.1016/j.fluid.2007.01.022).
Numbers after ± are expanded uncertainties.

conditions: 298.15 K; 101.33 kPa; Liquid

SMILES	mass density
Cc1ccccc1N [2-methylaniline]	994.343 ± 0.24 kg/m3
CCCCCCCCCC [decane]	726.412 ± 1.6 kg/m3
CCCCCCCCCCCC [dodecane]	741.54 ± 1.6 kg/m3

Results, then the molecule that gave them:

mass density	SMILES
679.627 ± 0.85 kg/m3	CCCCCCC [heptane]
714.064 ± 1.3 kg/m3	CCCCCCCCC [nonane]
698.636 ± 1.3 kg/m3	CCCCCCCC [octane]
